Measurements published in patent publication US20250144094A1 (Erasca, Inc., priority 2021, published 2025).

Target: Recombinant human ULK1 (1-649) (Homo sapiens (Human), UniProt O75385)
Experiment: ULK1 ADP Glo kinase activity assay, new method (ULKtide peptide substrate)
Conditions: 25° C., 40 minutes, read-out: ULK1 biochemical IC50
In short: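 GST-tagged human ULK1 (1-649) from Sf9 cells was reacted with ULKtide peptide and ATP for 40 min at 25 °C across 12-point compound dilutions from 10 μM. ADP formed was quantified by ADP-Glo luminescence; IC50 came from four-parameter fits relative to DMSO controls.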

Chain of Recombinant human ULK1 (1-649) (O75385 1-649): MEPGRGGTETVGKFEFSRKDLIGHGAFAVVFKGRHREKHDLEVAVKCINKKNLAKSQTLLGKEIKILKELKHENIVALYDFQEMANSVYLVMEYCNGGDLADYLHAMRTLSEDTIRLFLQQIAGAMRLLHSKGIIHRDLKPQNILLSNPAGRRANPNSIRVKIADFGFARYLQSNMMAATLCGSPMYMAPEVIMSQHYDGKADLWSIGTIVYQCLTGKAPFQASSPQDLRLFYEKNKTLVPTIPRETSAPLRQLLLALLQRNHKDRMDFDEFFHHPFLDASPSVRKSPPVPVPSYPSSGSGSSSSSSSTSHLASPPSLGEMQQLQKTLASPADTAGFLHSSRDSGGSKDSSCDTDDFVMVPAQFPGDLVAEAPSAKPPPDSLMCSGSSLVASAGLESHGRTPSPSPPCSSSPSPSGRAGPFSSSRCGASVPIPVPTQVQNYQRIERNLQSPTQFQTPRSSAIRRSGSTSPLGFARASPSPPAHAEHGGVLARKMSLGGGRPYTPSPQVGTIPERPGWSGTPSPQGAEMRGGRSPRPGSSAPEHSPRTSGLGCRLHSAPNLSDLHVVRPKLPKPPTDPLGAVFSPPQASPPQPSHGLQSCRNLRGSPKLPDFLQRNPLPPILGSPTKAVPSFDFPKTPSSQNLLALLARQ

IC50, ≤ 5 nM:
CCc1cc(N2CCN[C@@H](C)C2)ccc1Nc1ncc(C(F)(F)F)c(-c2cc3c(s2)C(=O)N(C2COC2)CCS3(=O)=O)n1 [Example 354, (S)-7-(2-((2-ethyl-4-(3-methylpiperazin-1-yl)phenyl)amino)-5-(trifluoromethyl)pyrimidin-4-yl)-4-(oxetan-3-yl)-3,4-dihydrothieno[2,3-f][1,4]thiazepin-5(2H)-one 1,1-dioxide]
CCc1cc(N2CCN[C@@H](CO)C2)ccc1Nc1ncc(C(F)(F)F)c(-c2cc3c(s2)C(=O)N(C2COC2)CCS3(=O)=O)n1 [Example 355, (R)-7-(2-((2-ethyl-4-(3-(hydroxymethyl)piperazin-1-yl)phenyl)amino)-5-(trifluoromethyl)pyrimidin-4-yl)-4-(oxetan-3-yl)-3,4-dihydrothieno[2,3-f][1,4]thiazepin-5(2H)-one 1,1-dioxide]
CCc1cc(N2C[C@H](C)N[C@@H](C)C2)ccc1Nc1ncc(C(F)(F)F)c(-c2cc3c(s2)C(=O)N(C2CC2)CCS3(=O)=O)n1 [Example 356, 4-cyclopropyl-7-(2-((4-((3S,5S)-3,5-dimethylpiperazin-1-yl)-2-ethylphenyl)amino)-5-(trifluoromethyl)pyrimidin-4-yl)-3,4-dihydrothieno[2,3-f][1,4]thiazepin-5(2H)-one 1,1-dioxide]
C[C@@H]1CN(c2ccc(Nc3ncc(C(F)(F)F)c(-c4cc5c(s4)C(=O)N(C4COC4)CCS5(=O)=O)n3)c(C3CC3)c2)C[C@H](C)N1C [Example 357, 7-(2-((2-cyclopropyl-4-((3S,5R)-3,4,5-trimethylpiperazin-1-yl)phenyl)amino)-5-(trifluoromethyl)pyrimidin-4-yl)-4-(oxetan-3-yl)-3,4-dihydrothieno[2,3-f][1,4]thiazepin-5(2H)-one 1,1-dioxide]
O=C1c2sc(-c3nc(Nc4ccc(N5CCN[C@@H](CO)C5)cc4C4CC4)ncc3C(F)(F)F)cc2S(=O)(=O)CCN1C1COC1 [Example 358, (R)-7-(2-((2-cyclopropyl-4-(3-(hydroxymethyl)piperazin-1-yl)phenyl)amino)-5-(trifluoromethyl)pyrimidin-4-yl)-4-(oxetan-3-yl)-3,4-dihydrothieno[2,3-f][1,4]thiazepin-5(2H)-one 1,1-dioxide]
CCc1cc(N2CCN[C@H](C)C2)ccc1Nc1ncc(C(F)(F)F)c(-c2cc3c(s2)C(=O)N(C2CC2)CCS3(=O)=O)n1 [Example 359, (R)-4-cyclopropyl-7-(2-((2-ethyl-4-(3-methylpiperazin-1-yl)phenyl)amino)-5-(trifluoromethyl)pyrimidin-4-yl)-3,4-dihydrothieno[2,3-f][1,4]thiazepin-5(2H)-one 1,1-dioxide]
CCc1cc(N2CCN(C)[C@H](C)C2)ccc1Nc1ncc(C(F)(F)F)c(-c2cc3c(s2)C(=O)N(C2CC2)CCS3(=O)=O)n1 [Example 360, (R)-4-cyclopropyl-7-(2-((4-(3,4-dimethylpiperazin-1-yl)-2-ethylphenyl)amino)-5-(trifluoromethyl)pyrimidin-4-yl)-3,4-dihydrothieno[2,3-f][1,4]thiazepin-5(2H)-one 1,1-dioxide]
CCc1cc(N2CCN(C)[C@@H](C)C2)ccc1Nc1ncc(C(F)(F)F)c(-c2cc3c(s2)C(=O)N(C2CC2)CCS3(=O)=O)n1 [Example 361, (S)-4-cyclopropyl-7-(2-((4-(3,4-dimethylpiperazin-1-yl)-2-ethylphenyl)amino)-5-(trifluoromethyl)pyrimidin-4-yl)-3,4-dihydrothieno[2,3-f][1,4]thiazepin-5(2H)-one 1,1-dioxide]
CCc1cc(N2CCN(C)[C@@H](C)C2)ccc1Nc1ncc(C(F)(F)F)c(-c2cc3c(s2)C(=O)N(C2COC2)CCS3(=O)=O)n1 [Example 362, (S)-7-(2-((4-(3,4-dimethylpiperazin-1-yl)-2-ethylphenyl)amino)-5-(trifluoromethyl)pyrimidin-4-yl)-4-(oxetan-3-yl)-3,4-dihydrothieno[2,3-f][1,4]thiazepin-5(2H)-one 1,1-dioxide]
